According to US8524302B2, “Natural flavour enhancers and methods for making same” (Pepsico, priority 2009, dated 2013):
“Also recorded” adds a separate entry of the source.

How the values were obtained:
sensory panel [1] = experiment: Sensory (triangle) tests of the compounds in water; type: in vivo; conditions: for Sensory descriptors / Intensity (0-5): additive 10 mmol/L; for Sensory descriptors: pH 6.5; for Intensity (0-5): pH 6.5, aroma and taste intensity, scale 0-5; for kokumi sensation (in words): without inducing or glutamate-containing composition
Procedure: (§1) Unless otherwise indicated, all sensory tests for the samples are determined using triangle tests (Wieser and Belitz, Z. Lebensm. Unters. Forsch., 1975, 159, 65-72) in three different sessions. The sensory panel is trained to evaluate aqueous solutions (2 mL each) of the following reference taste compounds dissolved in bottled water with a pH of 6.0: sucrose (25 mmol/L) for sweet taste; lactic acid (20 mmol/L) for sour taste; NaCl (30 mmol/L) for salty taste; caffeine (1 mmol/L) for bitter taste; and MSG (3 mmol/L) for umami taste, tannic acid (0.05%) for puckering astringency, and quercetin-O-β-D-glucopyranoside (0.01 mmol/L) for a velvety astringent, mouth-drying oral sensation. For the training of viscosity, a gelatin solution (0.5% in water) was used. […] Sensory analyses were performed in a sensory panel room at 19-22° C. in three different sessions using nose clamps.
(§2) For recording the taste profiles, samples are prepared as indicated in the examples below. Flavor profiles of samples are determined in a triangle test in three different sessions. Panelists refrain from eating or drinking for at least 1 hour prior to the session. At the start of the session and before each trial, the subjects rinsed with water and expectorated. The participants receive a set of two blanks and one taste sample. Liquids are swirled around in the mouth briefly and expectorated. […] Each sample with additive is compared to two reference samples without additives. Kokumi intensity is rated according to a scale from 0 to 5 (with 5 being the most intensive). Punch refers to an initial kokumi sensation experienced in the mouth within 0-3 seconds from the time when a food or liquid is put in the mouth, while long-lasting refers to kokumi felt after 10-60 seconds therefrom.
Sensory (triangle) tests are performed by dissolving the listed compounds in water (Evian®). Additives are added as specified in table below. The pH-value of all samples is adjusted to 6.5 using formic acid (0.1 mol/L) or sodium hydroxide (0.1 mol/L). For each sample, aroma and taste intensity is rated and panelists are asked to describe sensory characteristics.

sensory panel [2] = experiment: Sensory (triangle) tests: kokumi intensity in chicken broth; type: in vivo; conditions: for Kokumi intensity (0-5): pH 6.5, scale 0-5 (blank = 2); for kokumi effect (in words): Table 10; for Sensory descriptors: pH 6.5
Procedure: as §1, §2
Sensory (triangle) tests are performed by dilution of 3 grams of chicken broth concentrate (Gourmet Bouillon Huhn; Maggi, Singen, Germany) with 100 mL water (Evian®). Additives are added as specified in table below. The pH-value of all samples is adjusted to 6.5 using formic acid (0.1 mol/L) or sodium hydroxide (0.1 mol/L). […] For each sample, kokumi intensity is rated and panelists were asked to describe sensory characteristics.

Molecule | Sensory descriptors (sensory panel [1]) | Intensity (0-5) (sensory panel [1]) | Kokumi intensity (0-5) (sensory panel [2]; additive 10 mmol/L) | other results
C/C=C/SC[C@H](N)C(=O)O [(E)-S-1-propenyl-L-cysteine] | fresh onion aroma | 1 | 2.5 | –
S-propyl-L-cysteine-(±)-SO | – | 1 | 2.3 | Kokumi intensity (0-5) (sensory panel [2]; additive 5 mmol/L): 2.3
S-ethyl-L-cysteine-(±)-SO | – | 1 | 2.1 | –
C=CC[S+]([O-])C[C@H](NC(=O)CC[C@H](N)C(=O)O)C(=O)O (mixture of isomers) [γ-L-glutamyl-S-allyl-L-cysteine-(±)-SO] | burning | 0.5 | 2.5 | –
CCCSC[C@H](N)C(=O)O [S-propyl-L-cysteine] | – | 2 | 3.5 | Kokumi intensity (0-5) (sensory panel [2]; additive 5 mmol/L): 3.5
CSC[C@H](NC(=O)CC[C@H](N)C(=O)O)C(=O)NCC(=O)O [S-methyl-glutathione] | – | 0 | 2.8 | –
C=CCSC[C@H](NC(=O)CC[C@H](N)C(=O)O)C(=O)O [γ-L-glutamyl-S-allyl-L-cysteine] | – | 1 | 3.7 | –
N[C@@H](CCC(=O)O)C(=O)[O-].[Na+] [MSG, mono sodium glutamate, reference compound] | – | – | 2 | kokumi sensation (in words) (sensory panel [1]): no kokumi effect; kokumi effect (in words) (sensory panel [2]): no kokumi effect; Sensory descriptors (sensory panel [2]; additive 10 mmol/L): higher umami intensity; also recorded: increased umami
CC[S+]([O-])C[C@H](NC(=O)CC[C@H](N)C(=O)O)C(=O)O (mixture of isomers) [γ-L-glutamyl-S-ethyl-L-cysteine-(±)-SO] | flavourless | 0 | 2.2 | –
C/C=C/[S+]([O-])C[C@H](N)C(=O)O (mixture of isomers) [(E)-S-1-propenyl-L-cysteine-(±)-SO] | onion aroma | 0 | 2.2 | –
S-allyl-L-cysteine-(+)-SO [Alliin] | – | – | 2.5 | –
CCSC[C@H](N)C(=O)O [S-ethyl-L-cysteine] | – | 1 | 2.7 | –
CCC[S+]([O-])C[C@H](NC(=O)CC[C@H](N)C(=O)O)C(=O)O (mixture of isomers) [γ-L-glutamyl-S-propyl-L-cysteine-(±)-SO] | flavourless | 0 | 2.1 | –
C=CC[S@+]([O-])C[C@H](N)C(=O)O (racemic) [S-allyl-L-cysteine-(±)-SO] | – | 1 | 2.4 | –
[Cl-].[Na+] [NaCl, sodium chloride, reference compound] | – | – | – | kokumi sensation (in words) (sensory panel [1]): no kokumi effect; kokumi effect (in words) (sensory panel [2]): no kokumi effect; Sensory descriptors (sensory panel [2]; additive 30 mmol/L): more salty than the negative control; also recorded: increased salty taste; Kokumi intensity (0-5) (sensory panel [2]; additive 30 mmol/L): 2
CSC[C@H](NC(=O)CC[C@H](N)C(=O)O)C(=O)O [γ-L-glutamyl-S-methyl-L-cysteine] | flavourless | 0 | 3.5 | –
C/C=C/SC[C@H](NC(=O)CC[C@H](NCC(=O)[C@@H](O)[C@H](O)[C@H](O)CO)C(=O)O)C(=O)O [N-(1-Deoxy-D-fructos-1-yl)-γ-L-glutamyl-(E)-S-1-propenyl-L-cysteine] | – | – | – | Kokumi intensity (0-5) (sensory panel [2]; additive 4 mmol/L): 3.3

Molecule | Sensory descriptors (sensory panel [1]) | Intensity (0-5) (sensory panel [1]) | Kokumi intensity (0-5) (sensory panel [2]; additive 10 mmol/L) | other results
CCSC[C@H](NC(=O)CC[C@H](N)C(=O)O)C(=O)NCC(=O)O [S-ethyl-GSH, S-ethyl-γ-L-Glu-L-Cys-Gly] | – | 0 | 2.3 | –
CCSC[C@H](NC(=O)CC[C@H](N)C(=O)O)C(=O)O [γ-L-glutamyl-S-ethyl-L-cysteine] | tongue covering | 0.5 | 3.1 | –
CCC[S+]([O-])C[C@H](NC(=O)CC[C@H](N)C(=O)O)C(=O)NCC(=O)O (mixture of isomers) [S-propyl-GSH-(±)-SO, S-propyl-γ-L-Glu-L-Cys-(±)-SO-Gly] | flavourless | 0 | 2 | Sensory descriptors (sensory panel [2]; additive 10 mmol/L): same intensity as blank
C[S+]([O-])C[C@H](NC(=O)CC[C@H](N)C(=O)O)C(=O)NCC(=O)O (mixture of isomers) [S-methyl-GSH-(±)-SO, S-methyl-γ-L-Glu-L-Cys-(±)-SO-Gly] | flavourless | 0 | 2 | Sensory descriptors (sensory panel [2]; additive 10 mmol/L): same intensity as blank
C[S+]([O-])C[C@H](NC(=O)CC[C@H](N)C(=O)O)C(=O)O (mixture of isomers) [γ-L-glutamyl-S-methyl-L-cysteine-(±)-SO] | flavourless | 0 | 2.5 | –
S-methyl-L-cysteine-(±)-SO | flavourless | 0 | 2.1 | –
CSC[C@H](N)C(=O)O [S-methyl-L-cysteine] | flavourless | 0 | 2.4 | –
C=CCSC[C@H](NC(=O)CC[C@H](N)C(=O)O)C(=O)NCC(=O)O [S-allyl-GSH, S-allyl-γ-L-Glu-L-Cys-Gly] | – | 0 | 3.2 | –
N[C@@H](CCC(=O)N[C@@H](CS)C(=O)NCC(=O)O)C(=O)O [GSH, glutathione, reference compound] | – | – | 3.5 | –
C/C=C\SC[C@H](N)C(=O)O [(Z)-S-1-propenyl-L-cysteine] | – | 1 | 3.1 | Kokumi intensity (0-5) (sensory panel [2]; additive 5 mmol/L): 3.1
CCCSC[C@H](NC(=O)CC[C@H](N)C(=O)O)C(=O)NCC(=O)O [S-propyl-GSH, S-propyl-γ-L-Glu-L-Cys-Gly] | flavourless | 0 | 2.1 | –
CC[S+]([O-])C[C@H](NC(=O)CC[C@H](N)C(=O)O)C(=O)NCC(=O)O (mixture of isomers) [S-ethyl-GSH-(±)-SO, S-ethyl-γ-L-Glu-L-Cys-(±)-SO-Gly] | flavourless | 0 | 2 | Sensory descriptors (sensory panel [2]; additive 10 mmol/L): same intensity as blank
CCCSC[C@H](NC(=O)CC[C@H](N)C(=O)O)C(=O)O [γ-L-glutamyl-S-propyl-L-cysteine] | tongue covering | 0.5 | 2.8 | –
C/C=C/[S+]([O-])C[C@H](NC(=O)CC[C@H](N)C(=O)O)C(=O)O (mixture of isomers) [γ-L-glutamyl-(E)-S-1-propenyl-L-cysteine-(±)-SO] | onion aroma | 0.5 | 2.5 | –
C/C=C\[S+]([O-])C[C@H](N)C(=O)O (mixture of isomers) [(Z)-S-1-propenyl-L-cysteine-(±)-SO] | tongue covering, pungent | 1 | 2.2 | –
C=CC[S+]([O-])C[C@H](NC(=O)CC[C@H](N)C(=O)O)C(=O)NCC(=O)O (mixture of isomers) [S-allyl-GSH-(±)-SO, S-allyl-γ-L-Glu-L-Cys-(±)-SO-Gly] | flavourless | 0 | 2.8 | –
